According to paper PMC12225454, “Photo-clenbuterol: Optical Control of β2‑Adrenergic Receptor Signaling by Photoswitchable Ligand Efficacy” (Journal of Medicinal Chemistry, 2025):
Several values for one entry are separate records, joined by “and”; a condition that tells them apart may be missing. Equal entries are not always repeated.

What was measured:
[1] = UV/vis absorption spectra before and after illumination; format: physicochemical; conditions: 25 μM in HBSS buffer containing 1% DMSO; for λmax (nm) PSS cis: n−π* transition, approximated from PSS cis composition; for λmax (nm) trans: π–π* transition of trans isomer
[2] = Photostationary state composition by LC-MS at isosbestic point; conditions: for PSS cis (% cis) / PSS trans (% trans): DMSO 10 mM, LC-MS at isosbestic point; for PSS cis (% cis): after 360 ± 20 nm (12d: 520 ± 12 nm); for PSS trans (% trans): after 434 ± 9 nm from PSS cis
β2-AR = β2-AR (Homo sapiens, UniProt P07550); test: FRET-based EPAC cAMP assay, ligand stimulation (agonist mode); format: cell-based
human β2-AR = target: T1, human β2-AR (Homo sapiens, UniProt P07550, E27Q/G16R); test: [3H]DHA competition radioligand binding on HEK293T membranes
T1 construct: Human β2AR (GenBank: NP_000015.1) in pcDNA3.1+ expression plasmid; expressed in transfected cells; host or cells: HEK293T cells, transient transfection with PEI; membranes prepared

[3] = Reversible isomerization cycles under alternating illumination (photobleaching resistance); conditions: 25 μM in HBSS buffer containing 1% DMSO; 365 ± 11 nm / 440 ± 25 nm
[4] = Photostationary state composition by 1H NMR; format: physicochemical
Description: However, it has been computationally studied by Konrad et al. who calculated the n−π* band to be 444.5 nm for the cis isomer of the parent compound in the gas phase. […] The difference between calculated and experimental value could conceivably be the result of the buffer solvent not having been included in the calculations and/or the suboptimal trans to cis conversion at PSS cis (PSS cis = 66.3%). […] The PSS cis curve is slightly […], potentially enabling trans–cis isomerization at longer wavelengths. […] However, not unexpectedly given the low absorption at 560 nm, the illumination time required is much longer (hours versus 20 min with 360 nm illumination). Such longer illumination times would only be acceptable if the pharmacological differences between the isomers were much more pronounced, not requiring full conversions to PSS cis . […] The PSS cis and PSS trans values by LC–MS analysis (Figures B and S5) at the isosbestic point (376 nm) are 66.3% and 72.5%, respectively. These are similar to the 62.4% and 78.7% values obtained from ^1H NMR analysis, in which the well-resolved signal of the benzylic CH group allowed quantification of the PSS values (Figures C and S7).

Chain of β2-AR (P07550 whole entry): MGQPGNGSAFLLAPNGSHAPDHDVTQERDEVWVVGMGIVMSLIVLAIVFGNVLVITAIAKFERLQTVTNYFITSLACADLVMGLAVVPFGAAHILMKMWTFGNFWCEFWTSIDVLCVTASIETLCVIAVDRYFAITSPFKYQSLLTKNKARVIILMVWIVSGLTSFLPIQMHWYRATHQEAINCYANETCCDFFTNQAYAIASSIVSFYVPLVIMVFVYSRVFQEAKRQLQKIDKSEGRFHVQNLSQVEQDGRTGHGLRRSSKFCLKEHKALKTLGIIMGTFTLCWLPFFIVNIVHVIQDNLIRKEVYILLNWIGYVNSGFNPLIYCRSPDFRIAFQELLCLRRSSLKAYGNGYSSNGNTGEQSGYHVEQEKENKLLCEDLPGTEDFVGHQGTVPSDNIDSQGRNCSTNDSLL
T1 sequence (P07550 whole entry G16R/E27Q): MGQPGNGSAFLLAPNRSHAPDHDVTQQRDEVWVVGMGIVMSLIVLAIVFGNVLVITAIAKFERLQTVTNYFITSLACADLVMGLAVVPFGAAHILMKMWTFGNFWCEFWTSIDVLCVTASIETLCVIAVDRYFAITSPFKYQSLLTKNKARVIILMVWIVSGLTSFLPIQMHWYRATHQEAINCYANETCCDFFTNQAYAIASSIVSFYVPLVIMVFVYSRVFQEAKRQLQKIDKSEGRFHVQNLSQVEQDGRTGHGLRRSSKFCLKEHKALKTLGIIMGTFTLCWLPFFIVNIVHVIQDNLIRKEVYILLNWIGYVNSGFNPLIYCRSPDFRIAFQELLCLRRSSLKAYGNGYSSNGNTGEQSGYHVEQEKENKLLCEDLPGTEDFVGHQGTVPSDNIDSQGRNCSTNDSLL

Row | SMILES | λmax (nm) PSS cis [1] [nm] | λmax (nm) trans [1] [nm] | PSS cis (% cis) [2] | PSS trans (% trans) [2] | pEC50 trans (β2-AR) | α trans, intrinsic activity Emax (ligand)/Emax (isoprenaline) (β2-AR) | Ki (human β2-AR) [nM] | resistance to photobleaching, dynamic isomerization cycles [3] | PSS cis value from 1H NMR analysis ([4]; 10 mM in DMSO-d6, 360 ± 20 nm) [%] | PSS trans value from 1H NMR analysis ([4]; 10 mM in DMSO-d6, 434 ± 9 nm after PSS cis) [%] | PSS cis value with 560 nm light ([2]; 560 nm illumination, LC-MS) [%]
1 | CC(C)(C)NCC(O)c1cc(Cl)c(/N=N/c2c(Cl)cccc2Cl)c(Cl)c1 (stereo not drawn) [Compound 12d, (E)-2-(tert-Butylamino)-1-(3,5-dichloro-4-((2,6-dichlorophenyl)-diazenyl)-phenyl)-ethan-1-ol] | 441 | 293 | 38.5 ± 0.5% | 94.1 ± 0.3% | – | – | – | – | – | – | –
2 | CC(C)(C)NCC(O)c1ccc(/N=N/c2ccccc2)cc1 (stereo not drawn) [Compound 12a, (E)-2-(tert-Butylamino)-1-(4-(phenyldiazenyl)-phenyl)-ethan-1-ol] | 425 | 323 | 94.6 ± 0.5% | 71.8 ± 0.2% | – | – | – | – | – | – | –
3 | CC(C)(C)NCC(O)c1cc(Cl)c(/N=N/c2ccccc2)c(C#N)c1 (stereo not drawn) [Compound 12e, (E)-5-(2-(tert-Butylamino)-1-hydroxyethyl)-3-chloro-2-(phenyldiazenyl)-benzonitrile] | 426 | 331 | 88.7 ± 0.8% | 82.0 ± 0.4% | – | – | – | – | – | – | –
4 | CC(C)(C)NCC(O)c1ccc(/N=N/c2ccccc2)c(Cl)c1 (stereo not drawn) [Compound 12c, (E)-2-(tert-Butylamino)-1-(3-chloro-4-(phenyldiazenyl)phenyl)-ethan-1-ol] | 428 | 328 | 97.6 ± 0.1% | 65.5 ± 0.2% | – | – | – | – | – | – | –
5 | CC(C)(C)NCC(O)c1cc(Cl)c(N)c(C#N)c1 (stereo not drawn) [Compound 18, 2-Amino-5-(2-(tert-butylamino)-1-hydroxyethyl)-3-chlorobenzonitrile] | – | – | – | – | 9.0 ± 0.0 | 0.8 ± 0.0 | 20 | – | – | – | –
6 | CC(C)(C)NCC(O)c1cc(Cl)c(/N=N/c2ccccc2)c(Cl)c1 (stereo not drawn) [Compound 12b, (E)-2-(tert-Butylamino)-1-(3,5-dichloro-4-(phenyldiazenyl)phenyl)-ethan-1-ol] | 417 | 306 | 66.3% and 66.3 ± 0.9% | 72.5% and 72.5 ± 0.1% | – | – | – | at least 10 cycles | 62.4 | 78.7 | 74.9
